Laboratory results reported in patent publication US10273236B2, “Macrocyclic factor XIa inhibitors bearing heterocyclic groups” (Bristol-Myers Squibb Company, priority 2014, dated 2019).
Structures can show the parent of a compound that is named as a salt.

Tests used:
[1] = biological target: T1, purified human plasma kallikrein (Homo sapiens, UniProt P03952); assay: Plasma kallikrein inhibition assay, chromogenic substrate S-2302 (Ki); type: biochemical
T1 construct: Plasma prekallikrein is a zymogen of a trypsin-like serine protease; purchased Enzyme Research Laboratories
Experimental: (§1) The effectiveness of compounds of the present invention as inhibitors of the coagulation Factors XIa, VIIa, IXa, Xa, XIIa, plasma kallikrein or thrombin, can be determined using a relevant purified serine protease, respectively, and an appropriate synthetic substrate. The rate of hydrolysis of the chromogenic or fluorogenic substrate by the relevant serine protease was measured both in the absence and presence of compounds of the present invention. […] A decrease in the rate of absorbance or fluorescence change in the presence of inhibitor is indicative of enzyme inhibition. Such methods are known to one skilled in the art. The results of this assay are expressed as the inhibitory constant, Ki.
Plasma kallikrein determinations were made in 0.1 M sodium phosphate buffer at a pH of 7.5 containing 0.1-0.2 M sodium chloride and 0.5% PEG 8000. Determinations were made using purified human plasma kallikrein (Enzyme Research Laboratories) at a final assay concentration of 200 pM and the synthetic substrate S-2302 (H-(D)-Pro-Phe-Arg-pNA; Chromogenix) at a concentration of 0.00008-0.0004 M.
(§2) Values of Ki were determined by allowing the protease to react with the substrate in the presence of the inhibitor.
(§3) Reactions were allowed to go for periods of 20-180 minutes (depending on the protease) and the velocities (rate of absorbance or fluorescence change versus time) were measured.
(§4) The following relationships were used to calculate Ki values: (Vmax*S)/(Km+S) (vo−vs)/vs=I/(Ki(1+S/Km)) for a competitive inhibitor with one binding site; or vs/vo=A+((B−A)/1+((IC50/(I)^n))); and Ki=IC50/(1+S/Km) for a competitive inhibitor where: […]

[2] = biological target: T2, purified human Factor XIa (Homo sapiens, UniProt P03951); assay: Factor XIa inhibition assay, chromogenic substrate S-2366 (Ki); type: biochemical
T2 construct: purchased Haematologic Technologies
Experimental: as §1
Factor XIa determinations were made in 50 mM HEPES buffer at pH 7.4 containing 145 mM NaCl, 5 mM KCl, and 0.1% PEG 8000 (polyethylene glycol; JT Baker or Fisher Scientific). Determinations were made using purified human Factor XIa at a final concentration of 25-200 pM (Haematologic Technologies) and the synthetic substrate S-2366 (pyroGlu-Pro-Arg-pNA; Chromogenix or AnaSpec) at a concentration of 0.0002-0.001 M.
as §2, §3, §4

T2 sequence (P03951 388-625 limits assumed): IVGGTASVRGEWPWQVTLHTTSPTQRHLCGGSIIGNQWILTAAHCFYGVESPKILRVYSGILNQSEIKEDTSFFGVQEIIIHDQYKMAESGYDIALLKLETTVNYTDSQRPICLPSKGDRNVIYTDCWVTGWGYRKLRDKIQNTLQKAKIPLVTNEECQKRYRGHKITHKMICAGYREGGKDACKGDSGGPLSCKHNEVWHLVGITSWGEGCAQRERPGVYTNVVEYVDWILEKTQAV
T2 sequence (P03951 19-387 partner limits assumed): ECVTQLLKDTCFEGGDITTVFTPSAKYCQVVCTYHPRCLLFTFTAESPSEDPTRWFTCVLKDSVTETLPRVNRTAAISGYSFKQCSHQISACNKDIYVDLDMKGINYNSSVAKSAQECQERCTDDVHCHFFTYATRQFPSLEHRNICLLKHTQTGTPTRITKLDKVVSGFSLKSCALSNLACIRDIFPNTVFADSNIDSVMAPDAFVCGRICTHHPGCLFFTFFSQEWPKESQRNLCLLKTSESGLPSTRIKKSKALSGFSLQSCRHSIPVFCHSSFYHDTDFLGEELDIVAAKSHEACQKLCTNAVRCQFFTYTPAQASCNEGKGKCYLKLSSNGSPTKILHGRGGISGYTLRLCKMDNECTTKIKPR
T1 sequence (P03952 391-638 limits assumed): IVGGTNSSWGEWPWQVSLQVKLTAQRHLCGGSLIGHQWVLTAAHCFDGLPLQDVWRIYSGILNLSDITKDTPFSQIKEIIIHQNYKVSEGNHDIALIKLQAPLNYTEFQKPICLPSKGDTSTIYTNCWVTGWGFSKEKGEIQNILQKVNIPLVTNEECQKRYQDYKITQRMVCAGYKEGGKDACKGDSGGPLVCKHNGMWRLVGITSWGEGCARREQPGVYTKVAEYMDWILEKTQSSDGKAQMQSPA
T1 sequence (P03952 20-390 partner limits assumed): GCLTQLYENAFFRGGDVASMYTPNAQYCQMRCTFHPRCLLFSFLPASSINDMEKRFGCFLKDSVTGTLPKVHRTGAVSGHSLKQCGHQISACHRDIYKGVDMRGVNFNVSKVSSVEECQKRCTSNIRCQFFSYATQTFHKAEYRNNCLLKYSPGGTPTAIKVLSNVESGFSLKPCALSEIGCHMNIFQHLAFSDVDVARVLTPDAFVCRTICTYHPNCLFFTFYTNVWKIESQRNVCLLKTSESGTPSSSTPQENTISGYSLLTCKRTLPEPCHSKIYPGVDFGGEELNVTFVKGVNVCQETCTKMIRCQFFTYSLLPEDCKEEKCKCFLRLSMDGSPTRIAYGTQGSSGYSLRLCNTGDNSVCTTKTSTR

| SMILES | Ki [1] [nM] | Ki [2] [nM] |
| --- | --- | --- |
| [2H]C([2H])([2H])n1ncc2c1-c1ccnc(c1)[C@@H](N1CCC(c3cc(Cl)ccc3-n3cc(Cl)nn3)=CC1=O)CCC[C@@H](C)C(=O)N2 [Example 17, (9R,13S)-13-{4-[5-chloro-2-(4-chloro-1H-1,2,3-triazol-1-yl)phenyl]-6-oxo-1,2,3,6-tetrahydropyridin-1-yl}-3-(^2H3)methyl-9-methyl-3,4,7,15-tetraazatricyclo[12.3.1.0^2,6]octadeca-1(18),2(6),4,14,16-pentaen-8-one] | 10 | 0.15 |
| [2H]C([2H])([2H])n1ncc2c1-c1ccnc(c1)[C@@H](N1CCC(c3c(C(F)(F)F)ccc(Cl)c3F)=CC1=O)CCC[C@@H](C)C(=O)N2 [Example 18, (9R,13S)-13-{4-[3-chloro-2-fluoro-6-(trifluoromethyl)phenyl]-6-oxo-1,2,3,6-tetrahydropyridin-1-yl}-3-(^2H3)methyl-9-methyl-3,4,7,15-tetraazatricyclo[12.3.1.0^2,6]octadeca-1(18),2(6),4,14,16-pentaen-8-one] | 30 | 2.8 |
| C[C@@H]1CCC[C@H](N2CCC(c3cc(Cl)ccc3C#N)=CC2=O)c2cc(ccn2)-c2c(cnn2C(F)F)NC1=O [Example 19, 4-chloro-2-{1-[(9R,13S)-3-(difluoromethyl)-9-methyl-8-oxo-3,4,7,15-tetraazatricyclo[12.3.1.0^2,6]octadeca-1(18),2(6),4,14,16-pentaen-13-yl]-6-oxo-1,2,3,6-tetrahydropyridin-4-yl}benzonitrile] | 10 | 1.4 |
| C[C@H]1C(=O)Nc2cnn(C)c2-c2ccnc(c2)[C@@H](N2CCC(c3c(C(F)(F)F)ccc(Cl)c3F)=CC2=O)CCC1F (stereo partly drawn) [Example 20, (9S,13S)-13-{4-[3-chloro-2-fluoro-6-(trifluoromethyl)phenyl]-6-oxo-1,2,3,6-tetrahydropyridin-1-yl}-10-fluoro-3,9-dimethyl-3,4,7,15-tetraazatricyclo[12.3.1.0^2,6]octadeca-1(18),2(6),4,14,16-pentaen-8-one] | 40 | 1.4 |
| C[C@@H]1CCC[C@H](N2CCC(c3c(OC(F)F)ccc(Cl)c3F)=CC2=O)c2cc(ccn2)-c2c(cnn2C(F)F)NC1=O [Example 21, (9R,13S)-13-{4-[3-chloro-6-(difluoromethoxy)-2-fluorophenyl]-6-oxo-1,2,3,6-tetrahydropyridin-1-yl}-3-(difluoromethyl)-9-methyl-3,4,7,15-tetraazatricyclo[12.3.1.0^2,6]octadeca-1(18),2(6),4,14,16-pentaen-8-one] | 40 | 0.69 |
| C[C@@H]1CCC[C@H](N2CCC(c3c(F)ccc(Cl)c3F)=CC2=O)c2cc(ccn2)-c2c(cnn2C(F)F)NC1=O [Example 22, (9R,13S)-13-[4-(3-chloro-2,6-difluorophenyl)-6-oxo-1,2,3,6-tetrahydropyridin-1-yl]-3-(difluoromethyl)-9-methyl-3,4,7,15-tetraazatricyclo [12.3.1.0^2,6]octadeca-1(18),2(6),4,14,16-pentaen-8-one] | 50 | 8 |
| CC(C)[C@@H]1CCC[C@H](N2CCC(c3cc(Cl)ccc3-n3cc(Cl)nn3)=CC2=O)c2cc(ccn2)-c2c(cnn2C)NC1=O [Example 25, (9S,13S)-13-{4-[5-chloro-2-(4-chloro-1H-1,2,3-triazol-1-yl)phenyl]-6-oxo-1,2,3,6-tetrahydropyridin-1-yl}-3-methyl-9-(propan-2-yl)-3,4,7,15-tetraazatricyclo[12.3.1.0^2,6]octadeca-1(18),2(6),4,14,16-pentaen-8-one] | 16 | 0.47 |
| C[C@@H]1CCC[C@H](n2ccc(-c3c(OC(F)F)ccc(Cl)c3F)cc2=O)c2cc(ccn2)-c2c(cnn2C)NC1=O [Example 27, (9R,13S)-13-{4-[3-chloro-6-(difluoromethoxy)-2-fluorophenyl]-2-oxo-1,2-dihydropyridin-1-yl}-3,9-dimethyl-3,4,7,15-tetraazatricyclo[12.3.1.0^2,6]octadeca-1(18),2(6),4,14,16-pentaen-8-one trifluoroacetate] | 40 | 4.9 |
| C[C@H]1C(=O)Nc2cnn(C)c2-c2ccnc(c2)[C@@H](n2ccc(-c3c(C(F)(F)F)ccc(Cl)c3F)cc2=O)CCC1F (stereo partly drawn) [Example 28, (9S,13S)-13-{4-[3-chloro-2-fluoro-6-(trifluoromethyl)phenyl]-2-oxo-1,2-dihydropyridin-1-yl}-10-fluoro-3,9-dimethyl-3,4,7,15-tetraazatricyclo[12.3.1.0^2,6]octadeca-1(18),2(6),4,14,16-pentaen-8-one trifluoroacetate] | 25 | 3 |
| C[C@@H]1CCC[C@H](N2CCC(c3c(Cl)ccc(Cl)c3F)=CC2=O)c2cc(ccn2)-c2c(cnn2C(F)F)NC1=O [Example 31, (9R,13S)-13-[4-(3,6-dichloro-2-fluorophenyl)-6-oxo-1,2,3,6-tetrahydropyridin-1-yl]-3-(difluoromethyl)-9-methyl-3,4,7,15-tetraazatricyclo [12.3.1.0^2,6]octadeca-1(18),2(6),4,14,16-pentaen-8-one] | 11 | 1.9 |
| C[C@@H]1CCC[C@H](N2CCC(c3c(C(C)(F)F)ccc(Cl)c3F)=CC2=O)c2cc(ccn2)-c2c(cnn2C)NC1=O [Example 33, (9R,13S)-13-{4-[3-chloro-6-(1,1-difluoroethyl)-2-fluorophenyl]-6-oxo-1,2,3,6-tetrahydropyridin-1-yl}-3,9-dimethyl-3,4,7,15-tetraazatricyclo[12.3.1.0^2,6]octadeca-1(18),2(6),4,14,16-pentaen-8-one] | 50 | 5.7 |

These reach a lower Ki [1]. Values come first.

| Ki [1] [nM] | Ki [2] [nM] | SMILES |
| --- | --- | --- |
| 7 | 0.92 | C[C@@H]1CCC[C@H](N2CCC(c3c(OC(F)F)ccc(Cl)c3F)=CC2=O)c2cc(ccn2)-c2c(cnn2C)NC1=O [Example 23, (9R,13S)-13-{4-[3-chloro-6-(difluoromethoxy)-2-fluorophenyl]-6-oxo-1,2,3,6-tetrahydropyridin-1-yl}-3,9-dimethyl-3,4,7,15-tetraazatricyclo[12.3.1.0^2,6]octadeca-1(18),2(6),4,14,16-pentaen-8-one] |
| 7 | 1 | [2H]C([2H])([2H])n1ncc2c1-c1ccnc(c1)[C@@H](N1CCC(c3c(OC(F)F)ccc(Cl)c3F)=CC1=O)CCC[C@@H](C)C(=O)N2 [Example 30, (9R,13S)-13-{4-[3-chloro-6-(difluoromethoxy)-2-fluorophenyl]-6-oxo-1,2,3,6-tetrahydropyridin-1-yl}-3-(^2H3)methyl-9-methyl-3,4,7,15-tetraazatricyclo[12.3.1.0^2,6]octadeca-1(18),2(6),4,14,16-pentaen-8-one] |
| 6 | 2.7 | C[C@@H]1CCC[C@H](N2CCC(c3c(Cl)ccc(Cl)c3F)=CC2=O)c2cc(ccn2)-c2c(cnn2C)NC1=O [Example 24, (9R,13S)-13-[4-(3,6-dichloro-2-fluorophenyl)-6-oxo-1,2,3,6-tetrahydropyridin-1-yl]-3,9-dimethyl-3,4,7,15-tetraazatricyclo[12.3.1.0^2,6]octadeca-1(18),2(6),4,14,16-pentaen-8-one] |
| 6 | 0.6 | [2H]C([2H])([2H])n1ncc2c1-c1ccnc(c1)[C@@H](N1CCC(c3c(C(F)F)ccc(Cl)c3F)=CC1=O)CCC[C@@H](C)C(=O)N2 [Example 29, (9R,13S)-13-{4-[3-chloro-6-(difluoromethyl)-2-fluorophenyl]-6-oxo-1,2,3,6-tetrahydropyridin-1-yl}-3-(^2H3)methyl-9-methyl-3,4,7,15-tetraazatricyclo[12.3.1.0^2,6]octadeca-1(18),2(6),4,14,16-pentaen-8-one] |
| 5 | 0.48 | C[C@@H]1CCC[C@H](N2CCC(c3c(C(F)F)ccc(Cl)c3F)=CC2=O)c2cc(ccn2)-c2c(cnn2C)NC1=O [Example 26, (9R,13S)-13-{4-[3-chloro-6-(difluoromethyl)-2-fluorophenyl]-6-oxo-1,2,3,6-tetrahydropyridin-1-yl}-3,9-dimethyl-3,4,7,15-tetraazatricyclo [12.3.1.0^2,6]octadeca-1(18),2(6),4,14,16-pentaen-8-one] |
| 4 | 2.4 | [2H]C([2H])([2H])n1ncc2c1-c1ccnc(c1)[C@@H](N1CCC(c3cc(Cl)ccc3C#N)=CC1=O)CCC[C@@H](C)C(=O)N2 [Example 32, 4-chloro-2-{1-[(9R,13S)-3-(^2H3)methyl-9-methyl-8-oxo-3,4,7,15-tetraazatricyclo[12.3.1.0^2,6]octadeca-1(18),2(6),4,14,16-pentaen-13-yl]-6-oxo-1,2,3,6-tetrahydropyridin-4-yl}benzonitrile] |
